Experimental data from patent US10464963B2, “Compounds from invasive Salvinias and methods of using the same” (STEPHEN F. AUSTIN STATE UNIVERSITY, priority 2013, dated 2019).
Where two headings read alike, the source gives them in different places.

Key:
[1] = system: human non-small cell lung cancer (A549); assay: Cytotoxicity assay (WST-8), A549; assay type: cell-based; conditions: Homo sapiens
Description: (§1) PANC-1 and MRC-5 was cultured in complete growth medium according to the ATCC protocols. Cells were grown at 37° C. and 5% CO2 in humidified air.
(§2) Cytotoxicity of total extracts of S. molesta was tested against PANC-1, A549, PC-3, and MRC-5. Cytotoxicity of the fractions was determined using A549 cells, a human non-small lung cancer cell line. Fractions were tested at 25, 50, and 100 μg/mL. The isolated pure compounds were tested in each of the cultured human tumor and normal cell lines at various concentrations between 1 and 100 μM with three replications. Human tumor and normal cells were inoculated into 96 well microtiter plates in 90 μL at plating densities ranging from 5,000 to 40,000 cells/well (measured by Z2 Coulter Counter of Beckman) depending on the doubling time of individual cell lines. Cell growth and viability was measured by WST-8 (Water Soluble Tetrazolium) assays following a standard protocol (Cell Counting Kit-8, Dojindo Molecular, Maryland). The WST-8 assay measured the relative activity of mitochondrial reductase enzymes in viable cells. A control WST reading (T0) before treatment was measured, then cells were continuously exposed to isolates for 48 h. After WST added and incubated for 2 h, the amount of formazan was measured by using a microplate spectrophotometer (μQuant spectrophotometer, Bio-Tek Instruments, Inc., Vermont) at 450 nm. TC or TD represents the readings of the untreated control or with tested compounds. Percent cell-growth (G) and percent cell-growth inhibition (GI) was calculated as: G=(TD−T0/TC−T0)×100; GI=[1−(TD−T0/TC−T0)]×100 for which TD≥T0; and G=(TD−T0/T0)×100; GI=[1−(TD−T0/T0)]×100 for which TD≤T0. […] Cancer drug doxorubicin was used as the positive controls in the cell-based assays.

[2] = system: human prostate cancer (PC-3); assay: Cytotoxicity assay (WST-8), PC-3; assay type: cell-based; conditions: Homo sapiens
Description: as §1, §2

[3] = system: human leukemia (HL-60); assay: Cytotoxicity assay (WST-8), HL-60; assay type: cell-based; conditions: Homo sapiens
[4] = system: human exocrine pancreatic cancer (PANC-1); assay: Cytotoxicity assay (WST-8), PANC-1; assay type: cell-based; conditions: Homo sapiens
Description: as §1, §2

[5] = system: human exocrine pancreatic cancer (BxPC-3); assay: Cytotoxicity assay (WST-8), BxPC-3; assay type: cell-based; conditions: Homo sapiens
[6] = system: human breast cancer (MDA-MB-231); assay: cells; assay type: cell-based
From the text: Human exocrine pancreatic cancer (PANC-1 and BxPC-3), non-small cell lung cancer (A549), prostate cancer (PC-3), breast cancer (MDA-MB-231), and leukemia (HL-60) were obtained from The University of Texas M. D. Anderson Cancer Center, Houston, Tex., and Normal human lung fibroblasts cells (MRC-5) was purchased from the American Type Culture Collection (ATCC). PC-3, A549 and HL-60 cells were maintained in RPMI 1640 medium supplemented with 10% (v/v) fetal bovine serum and antibiotics (1,000 units/mL penicillin-streptomycin solution, Hyclone). PANC-1 and MRC-5 was cultured in complete growth medium according to the ATCC protocols. Cells were grown at 37° C. and 5% CO2 in humidified air.
Cytotoxicity of total extracts of S. molesta was tested against PANC-1, A549, PC-3, and MRC-5. Cytotoxicity of the fractions was determined using A549 cells, a human non-small lung cancer cell line. Fractions were tested at 25, 50, and 100 μg/mL. The isolated pure compounds were tested in each of the cultured human tumor and normal cell lines at various concentrations between 1 and 100 μM with three replications. Human tumor and normal cells were inoculated into 96 well microtiter plates in 90 μL at plating densities ranging from 5,000 to 40,000 cells/well (measured by Z2 Coulter Counter of Beckman) depending on the doubling time of individual cell lines. Cell growth and viability was measured by WST-8 (Water Soluble Tetrazolium) assays following a standard protocol (Cell Counting Kit-8, Dojindo Molecular, Maryland). The WST-8 assay measured the relative activity of mitochondrial reductase enzymes in viable cells. A control WST reading (T0) before treatment was measured, then cells were continuously exposed to isolates for 48 h. After WST added and incubated for 2 h, the amount of formazan was measured by using a microplate spectrophotometer (μQuant spectrophotometer, Bio-Tek Instruments, Inc., Vermont) at 450 nm. TC or TD represents the readings of the untreated control or with tested compounds. Percent cell-growth (G) and percent cell-growth inhibition (GI) was calculated as: G=(TD−T0/TC−T0)×100; GI=[1−(TD−T0/TC−T0)]×100 for which TD≥T0; and G=(TD−T0/T0)×100; GI=[1−(TD−T0/T0)]×100 for which TD≤T0. To determine the inhibitory potency of active compounds (GI50, 50% cell-growth inhibition), tests were extended to additional concentrations (varying from 0.01 to 100 μM). Cancer drug doxorubicin was used as the positive controls in the cell-based assays.

[7] = system: normal human lung fibroblasts cells (MRC-5); assay: Cytotoxicity assay (WST-8), MRC-5; assay type: cell-based
Description: as §1, §2

[8] = system: human exocrine pancreatic cancer cells (PANC-1); assay: Cell proliferation assay (CCK-8), PANC-1; assay type: cell-based; conditions: 12, 24, 48, 72 h, FIG. 3
Description: (§3) CCK-8 (Dojindo Molecular, Maryland) was used to measure the proliferation response of salviniol (6) and montbretol (8) against human exocrine pancreatic cancer cell lines (PANC-1 and BxPC-3), according to the manufacturer's instructions. Cell were grown in growth medium plus 10% FBS and 5% antibiotics in 96-well plates and then were treated with various concentrations of test compounds and incubated for 12, 24, 48, and 72 h, respectively. The end of the incubation period, 10% CCK-8 solution was added to the wells. After 2 h incubation, the absorbance at 450 nm was measured. A calibration curve was prepared using the absorbance observed known numbers of viable cells.

[9] = system: human exocrine pancreatic cancer cells (BxPC-3); assay: Cell proliferation assay (CCK-8), BxPC-3; assay type: cell-based; conditions: 12, 24, 48, 72 h, FIG. 3
Description: as §3

[10] = Cytotoxicity assay (WST-8), MRC-5; assay type: cell-based, human; conditions: human
Description: as §1, §2

[11] = A549, Table 1, read-out: Activity against human non-small cell lung tumor A549 (GI50) (converted)
[12] = PANC-1, Table 1, read-out: Activity against human exocrine pancreatic tumor PANC-1 (GI50)
[13] = BXPC-3, Table 1, read-out: Activity against human exocrine pancreatic tumor BxPC-3 (GI50) (converted)

## CC(C)c1cc2c(cc1O)[C@@]1(C)CCCC(C)(C)[C@@H]1C[C@H]2CC1=CCC(O)(C(C)C)CC1 (stereo partly drawn) [Compound 6, 7-(menth-1-en-4-ol)-ferruginol]
[1]; A549, 48 h, read-out: Cytotoxic activity (GI50) A549
  GI50: 62.9 ± 9.63 µM
[1]; [11]
  GI50: 62.9 µM
[2]; 48 h, read-out: Cytotoxic activity (GI50) PC-3
  GI50: 54.2 ± 5.9 µM
[2]; Table 1, read-out: Activity against human prostate tumor PC-3 (GI50) (converted)
  GI50: 54.2 µM
[3]; HL-60, 48 h, read-out: Cytotoxic activity (GI50) HL-60
  GI50: 48.1 ± 10.9 µM
[3]; HL-60, Table 1, read-out: Activity against human leukemia HL-60 (GI50) (converted)
  GI50: 48.1 µM
[4]; PANC-1, 48 h, read-out: Cytotoxic activity (GI50) PANC-1
  GI50: 60.4 ± 16.2 µM
[4]; [12]
  GI50: 60.4 µM
[5]; BXPC-3, 48 h, read-out: Cytotoxic activity (GI50) BxPC-3
  GI50: 87.3 ± 24.5 µM
[5]; [13]
  GI50: 87.3 µM
[6]; MDA-MB-231, 48 h, read-out: Cytotoxic activity (GI50) MDA-MB-231
  GI50: 75 ± 1.37 µM
[6]; MDA-MB-231, Table 1, read-out: Activity against human breast tumor MDA-MB-231 (GI50)
  GI50: 75 µM
[7]; human, 48 h
  GI50: 58.4 ± 6.83 µM
[8]
  Effect on proliferation of PANC-1 cells (in words): inhibit human pancreatic cancer cell proliferation in a dose-dependent manner
[9]
  Effect on proliferation of BxPC-3 cells (in words): inhibit human pancreatic cancer cell proliferation in a dose-dependent manner

## CC(C)c1cc2c(cc1O)[C@@]1(C)CCCC(C)(C)C1=C(O)C2=O [Compound 8, montbretol]
[1]; [11]
  GI50: 11.1 µM
[1]; A549, Table 7, WST-8, 48 h exposure, mean ± S.D., read-out: Cytotoxic activity (GI50) A549
  GI50: 11.1 ± 3.16 µM
[2]; Table 7, WST-8, 48 h exposure, mean ± S.D., read-out: Cytotoxic activity (GI50) PC-3
  GI50: 13.2 ± 2.03 µM
[3]; HL-60, Table 7, WST-8, 48 h exposure, mean ± S.D., read-out: Cytotoxic activity (GI50) HL-60
  GI50: 11.5 ± 3.13 µM
[4]; [12]
  GI50: 23.1 µM
[4]; PANC-1, Table 7, WST-8, 48 h exposure, mean ± S.D., read-out: Cytotoxic activity (GI50) PANC-1
  GI50: 23.1 ± 9.16 µM
[5]; [13]
  GI50: 25 µM
[5]; BXPC-3, Table 7, WST-8, 48 h exposure, mean ± S.D., read-out: Cytotoxic activity (GI50) BxPC-3
  GI50: 25 ± 13.2 µM
[10]
  GI50 at 48 h: 20 µM
[7]
  Toxicity against normal cell (in words): no toxic against normal cell
[8]
  Effect on proliferation of PANC-1 cells (in words): inhibit human pancreatic cancer cell proliferation in a dose-dependent manner
[9]
  Effect on proliferation of BxPC-3 cells (in words): inhibit human pancreatic cancer cell proliferation in a dose-dependent manner
